Test: gradient 5% acetonitrile 3 min, to 50% in 2 min, to 85% in 15 min, held 3 min, 100 µL/min
Conditions: column: Zorbax Extend-C18 2.1 x 50 mm; eluents: water / acetonitrile, 0.1% formic acid
Outline: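 Over 3 months, pure standards in mixtures of ~100 molecules were run by HPLC coupled to a quadrupole time-of-flight mass spectrometer in positive and negative ionization mode. The column was a Zorbax Extend-C18 (2.1 × 50 mm, 1.8 μm) at 100 μL/min, eluted with water and acetonitrile each holding 0.1% formic acid, with 40 μL dead and 900 μL dwell volumes. Retention time was determined from adduct peaks chosen by software and checked manually.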

SMILES | RP-LC retention time
CC1CCN(S(=O)(=O)c2ccc3c(c2)CCCC(=O)N3CC(=O)NCc2ccc(F)cc2)CC1 | 926 s
COc1ccc(Cl)cc1S(=O)(=O)N1CCC(n2cnnc2-c2ccccc2)CC1 | 825 s
COc1ccc(OC)c(-c2cc(C(=O)N3CCC(C(=O)NCC(F)(F)F)CC3)[nH]n2)c1 | 705 s
CCc1ccc(NC(=O)Cn2ncn3c(C)c(C(=O)NCc4ccccc4)c(C)c3c2=O)cc1 | 863 s
Cc1oc(C2CCN(C(=O)COc3ccccc3)CC2)nc1C(=O)N1CCCCC1 | 796 s
N#Cc1cccc(NC(=O)C2CCN(S(=O)(=O)c3cc(-c4noc(C5CCC5)n4)cs3)CC2)c1 | 1070 s
CCOC(=O)C1CCC(CNC(=O)N2CCN(Cc3nc4cc(C)ccc4o3)CC2)CC1 (centres undefined) | 735 s
CN(C)c1nccnc1OC1CCN(C(=O)c2ccc(Cl)cc2)C1 (centres undefined) | 783 s
COc1ccc(NC(=O)NC(C(=O)N2CCc3ccccc32)C(C)C)c(OC)c1 (centres undefined) | 934 s
CCNC(=O)NC1CCN(c2ccc(C)cc2)C1=O (centres undefined) | 671 s
CC1CCC2(CC1)NC(=O)N(CC(=O)NCc1ccc(F)cc1)C2=O (centres undefined) | 801 s
Cc1ccsc1C(=O)N1C[C@H]2C[C@H](C1)[C@H]1CCCC(=O)N1C2 | 754 s
Cc1cc(Cl)ccc1NC(=O)Cn1nc(C(=O)N2CCCCC2)c2ccccc21 | 778 s
CCNC(=O)c1cc(N2CCCC2)nc2ccc(F)cc12 | 580 s
Cn1nc2n(c1=O)CCC(NC(=O)c1cc(C3CC3)[nH]n1)CC2 (centres undefined) | 586 s
O=C(Cn1c(=O)c2cc(-c3cccs3)nn2c2ncccc21)NCc1ccccc1 | 830 s
CCOC(=O)Cn1c(=O)c2c(nc3n2CCN3c2ccc(OC)cc2)n(C)c1=O | 826 s
CC(=O)NCC1(O)CCCC(C)C1 (centres undefined) | 663 s
Nc1nc(Nc2ccccc2)n[nH]1 | 637 s
Fc1ccc(CN2CC(F)(F)C[C@H]2COc2cccnc2)c(Cl)c1 | 870 s
COc1cc(NC(=O)c2sc(-c3cn(C(C)C)c4ncccc34)nc2C)cc(OC)c1 | 1030 s
CC1(C)CC(=O)C2=C(C1)Nc1ccccc1N(CC(=O)NC1CCCC1)C2c1ccc(F)cc1 (centres undefined) | 863 s
CC(=O)c1cccc(NC(=O)C2CC(=O)N(c3ccc4c(c3)CCN4C(=O)C3CCC3)C2)c1 (centres undefined) | 760 s

SMILES | RP-LC retention time
CCOC(=O)C(=O)Cc1nc2ccccc2s1 | 871 s
Cc1noc2nc(C)n(CC(=O)Nc3ccc(F)cc3F)c(=O)c12 | 767 s
COCc1nc2ccccc2n1CC(=O)NC1CCCCC1 | 642 s
O=C(CCc1c(-c2ccccc2)nc2ccccn12)Nc1cccc(Cl)c1 | 692 s
CCCNC(=O)c1cc2sccc2n1C | 816 s
CCOC(=O)c1c(C)c(C(=O)Nc2cc(Cl)ccc2OC)c(C)n1CC | 1180 s
CCn1c(=O)sc2cc(S(=O)(=O)N3CCC(C(=O)Nc4ccc5c(c4)OCO5)CC3)ccc21 | 863 s
CC1=C(c2ccccc2)S(=O)(=O)N=C1N1CCCN(C(=O)C2CCCC2)CC1 | 814 s
O=C(c1cn2ccnc(-c3ccc(F)cc3)c2n1)N1CCN(C(=O)c2ccco2)CC1 | 693 s
O=C(CN1C(=O)CCCc2cc(S(=O)(=O)N3CCCCC3)ccc21)Nc1ccc(F)c(Cl)c1 | 1000 s
O=C(NC1CC1)[C@@H]1C[C@H](Oc2cccnc2)CN1C(=O)c1ccco1 | 538 s
O=C(NCc1cccnc1)c1cccn2c(=O)c3cc(Cl)ccc3nc12 | 657 s
c1coc(-c2nc(-c3ccc4c(c3)nnn4CCN3CCCCC3)no2)c1 | 652 s
CC(C)CCNC(=O)N1CC(c2nc(-c3cccnc3)no2)C2(CCOCC2)C1 (centres undefined) | 725 s
CCn1ncc(C(=O)N2CCCn3ccnc3C2C(C)C)c1C (centres undefined) | 567 s
O=c1ccn(-c2ccc(Cl)cc2)nc1-c1nc(-c2ccc(Cl)cc2)no1 | 1040 s
O=C(NCc1cc(F)cc(F)c1)c1cn2cc(Cl)ccc2n1 | 857 s
O=S(=O)(NCc1cccnc1-c1ccc(F)cc1)c1ccc(Br)cc1 | 801 s
CCOC(=O)Cn1cccc(S(=O)(=O)N2CCC(C)CC2)c1=O | 814 s
CNC(=O)[C@@H](NC(=O)[C@H](CC(C)C)[C@H](O)C(=O)NO)C(C)(C)C | 620 s
CCn1cc(C)c(C(=O)O)c1CC(=O)NCc1ccc(C)cc1 | 772 s
COc1ccc(-c2nc(-c3cn(Cc4ccccc4)nn3)no2)cc1OC | 892 s
O=C(c1cccnc1)N1CCc2c([nH]c3ccccc23)C1c1ccc(Cl)cc1 (centres undefined) | 998 s

SMILES | RP-LC retention time
CCOC(=O)c1c(C)oc2ncnc(NCc3ccc4c(c3)OCO4)c12 | 1050 s
CC(C)c1ccc(Nc2c(-c3ccc(N(C)C)cc3)nc3ncccn23)cc1 | 820 s
CN(CCc1noc(COc2ccc(Cl)cc2)n1)C(=O)Nc1ccc(F)cc1 | 934 s
CCOc1ccc(-c2nc(-c3ccc4c(c3)oc(=O)n4C)no2)cc1 | 1130 s
O=C(C1CCCN(c2nn3c(=O)c4c(nc3s2)CCCC4)C1)N1CCN(c2ccccn2)CC1 (centres undefined) | 588 s
CC(C)(C)C(=O)N1C[C@@H](CO)[C@H](c2nc(-c3ccncc3)no2)C1 | 631 s
COc1cccc(-c2noc(Cn3ccn(Cc4ccc(Cl)cc4)c(=O)c3=O)n2)c1 | 895 s
COc1ccc(-c2c(C(=O)O)nnn2-c2ccc(OC)c(OC)c2)cc1 | 712 s
O=C(CCc1nnc2c3cc(-c4ccc(F)cc4)nn3ccn12)NCCc1cccs1 | 786 s
Cc1noc([C@@H]2CN(C(=O)c3ccc(Br)o3)C[C@H]2CO)n1 | 657 s
Cn1cnc2ccc(-c3noc(-c4ccc(F)cc4)n3)cc21 | 739 s
CCNC(=O)c1ccc(-n2nc(C)cc2-c2ccccc2)cc1 | 749 s
Cc1cc(N2C=C(C(=O)N3CCCC3)S(=O)(=O)c3ccc(F)cc32)ccc1F | 854 s
CN(CC(=O)N1CCN(c2ccccc2)CC1)S(=O)(=O)c1c[nH]c(C(=O)N2CCCC2)c1 | 744 s
CC(=O)N1CCN(C(=O)c2ccc(C(=O)O)cc2)CC1 | 530 s
CCc1onc(C)c1C1CCCN1C(=O)c1ccc(C)cc1 (centres undefined) | 775 s
COc1ccc(-c2cc(C(=O)NCC(c3cccs3)N(C)C)no2)cc1 (centres undefined) | 675 s
O=C(c1csc(N2CCN(c3ccc(F)cc3)CC2)n1)N1CCCCC1 | 1000 s
Fc1ccc(CN2CCC(Cc3nc(-c4cccnc4)n[nH]3)C2)c(F)c1 (centres undefined) | 564 s
Cc1cc(NC(=O)CSc2nnc(CCc3nc4ccccc4[nH]3)o2)no1 | 553 s
COc1ccc(C2Nc3ccc(C)cc3[C@H]3OCCC[C@@H]23)cc1O (some centres undefined) | 894 s
Cc1oc(-c2[nH]ncc2C(=O)N2CCCC2)cc1S(=O)(=O)Nc1ccccc1 | 685 s
Cc1ccc(NC(=O)Cn2nc3cc(C)nc(N4CCCC4)n3c2=O)c(C)c1 | 791 s

SMILES | RP-LC retention time
Cc1ccc(S(=O)(=O)N2C[C@@H]3CN(S(=O)(=O)c4ccccc4F)C[C@H](C2)O3)cc1 | 955 s
O=C(NCc1ccco1)C1CCN(S(=O)(=O)c2cc(C(=O)N3CCCCCC3)cs2)CC1 | 815 s
COc1ccc(-c2noc(CN3C(=O)COc4ccc(Cl)cc43)n2)cc1OC | 971 s
COc1cc(C(=O)N2CC(=O)Nc3ccc(F)cc3C2c2ccccc2)cc(OC)c1OC (centres undefined) | 906 s
Cc1oc(-c2cccc(Cl)c2)nc1CN(c1ccccc1)S(=O)(=O)c1cccs1 | 1260 s
O=C(CCCc1nnc2c(=O)n(-c3ccc(Cl)cc3)ccn12)N1CCN(c2ccccn2)CC1 | 595 s
CC1CN(C(=O)Cn2cc(SCC(=O)NC3CCCC3)c3ccccc32)CC(C)O1 (centres undefined) | 826 s
O=C(Cc1cccn1-c1ccc(F)cc1)N1CCOCC1 | 760 s
Cc1ccc(Cl)cc1N1CCN(c2ncc(S(=O)(=O)c3ccccc3)c(N)n2)CC1 | 1250 s
CC(C)CCNC(=O)NCCc1cn(C)c2ncccc12 | 649 s
COc1ccc(S(=O)(=O)N2CCC(c3cnn(-c4cccc(C)c4)c3)CC2)cc1 | 1130 s
O=C(/C=C/c1cccnc1)c1ccccc1O | 817 s
Cc1ccc(Nc2nc(-c3cc(C)ccc3C)cs2)nc1 | 902 s
O=C(Cn1cccc1-c1nc(-c2ccc3c(c2)OCO3)no1)Nc1ccc(Cl)cc1F | 738 s
Cc1ccc2c(c1)N(C(=O)Cn1ccn3nc(-c4ccc(F)cc4)c(CO)c3c1=O)CCO2 | 930 s
COCCNC(=O)C1COC2(CCCCC2)N1C(=O)c1cccc(F)c1 (centres undefined) | 719 s
O=C(NCc1ccccc1F)c1cccc(-c2ccc(N3CCCC3)nc2)c1 | 675 s
Cc1nn(CC(=O)N2CCOCC2)c(=O)c2c(-n3cccc3)n(-c3cccc(F)c3)nc12 | 733 s
O=C(C1CCN(c2cnc3nccnc3c2)CC1)N1CCN(c2ccccn2)CC1 | 570 s
CCOc1ccc(CCNC(=O)CN2C(=O)CSc3cccn3-c3ccccc32)cc1OCC | 939 s

Source: the METLIN SMRT retention time set (Domingo-Almenara et al. 2019)
